Experimental data published in patent publication US20160367511A1, “EFFICACY OF DIETARY DHA-PHOSPHOLIPID FOR BRAIN DHA AND DPA ACCRETION IN NEONATES” (N.V. NUTRICIA, priority 2013, published 2016).

Details: both, Yorkshire x Landrace cross sows bred with Hampshire boars, pig, in vivo, 6 days
Description: The TAG tracer (TAG-^13C-DHA) had ^13C-DHA in the sn-2 position with unlabeled 16:0 in the sn-1 and sn-3 positions. The tracer representative for PL was phosphatidylcholine (PC) with ^13C-DHA in the sn-2 position and unlabeled 16:0 in the sn-1 position (PC-^13C-DHA).
Sows (Yorkshire and Landrace cross) were bred with Hampshire boars. After birth, piglets were left to nurse with the sow for at least 48 hours. Twenty piglets, 2 to 4 days of age, were chosen for the study based on the following criteria: weight (about 2.0 kg), gender (10 males and 10 females), health (active and apparently normal, and not the smallest animal in the litter) and sow. Piglets were given a unique number/color combination identifier and then were transported to Large Animal Research and Teaching Unit (LARTU), Cornell University.
At the study site, piglets were housed in individual stainless steel cages and were placed on a single fully balanced commercially available young farm animal milk replacer formula immediately upon arrival.
On day 16 of life, 16 robust piglets were assigned to two dosing groups balanced with respect to gender, weight, and age but otherwise distributed randomly. Group PC were orally dosed with PC-^13C-DHA; Group TG were dosed with TG-^13C-DHA.
Doses were prepared by dissolving CHC13 solutions of PC-^13C-DHA or TAG-^13C-DHA in about 1 mL of refined olive oil and driving off the CHCl3 by gentle heating under flowing dry N2 over 4 hours. The resulting olive oils were carefully placed on the surface of a few mL of reconstituted piglet formula and sonicated until homogeneous. The resulting labeled formula was split into 1 to 2 mL aliquots gravimetrically and administered orally to piglets, followed by several washes of the vials containing the labeled formulas, at the beginning of a feed. Care was taken to insure all of the labeled formula and the washes, consisting of a total of up to 10 mL, were swallowed by the piglets. Piglets were then provided with their normal meal of 500 mL milk replacer which they routinely consume completely. Doses to piglets corresponded to about 20 mg ^13C-DHA delivered in PC and 86 mg of ^13C-DHA delivered in TAG.
Six days after the dose, and on a single day after 20 days of formula, all piglets were euthanized by exsanguination under anesthesia. Blood for fatty acid analysis was collected in tubes with EDTA and spun to prepare red blood cells. […] A piece was immediately used for preparation of synaptosomes, and the remaining grey matter was flash frozen for fatty acid analysis. Retina, heart, liver, biceps femoris muscle and kidney were also harvested, and all tissues were flash frozen and stored at −80° C. until prepared for analysis. […]

13C-DHA relative to 13C-DPA in grey matter: about 8 fold | 13C-DHA relative to 13C-DPA in liver: 40 fold | 13C-DHA relative to DPAn-3 in retina: 6.3 fold | liver 13C-DHA relative to grey matter 13C-DHA: about 20 fold
SMILES: CC/C=C\C/C=C\C/C=C\C/C=C\C/C=C\C/C=C\CCC(=O)O [^13C-DHA, docosahexaenoic acid]
